Experimental data taken from patent US20140024700A1, “BLOOD-BORNE MIRNAS AS SURROGATE MARKERS OF DRUG EFFICACY FOR CARDIAC CONDITIONS” (miRagen Therapeutics, Inc., priority 2010, published 2014).

Columns and labels:
Dahl salt-sensitive rats = test: Dahl salt-sensitive rat model, 6% NaCl diet: body weight and survival (Example 3); assay type: in vivo
[1] = tested on: miR-208a, miR-499, miR-208b, Myh6, Myh7b, Myh7, Dynlt1, Vcpip, Tegt; test: Cardiac tissue real-time PCR, 6% NaCl diet (Example 3); assay type: in vivo, rat; settings: M-10101 25 mg/kg sc, Captopril po daily
Description: (§1) One week following the initiation of the 6.0% NaCl diet, rats were dosed subcutaneously (sc) with saline or oligonucleotides (M−10101, 5′-CTTTTTGCTCGTCTTA-3′ (SEQ ID NO: 12) or M-10591, 5′-TCCTAGAAAGAGTAGA-3′ (SEQ ID NO:13)) at 25 mg/kg every 2 weeks. Captopril or water were dosed daily by oral gavage. Echocardiography was performed every 2 weeks starting one week post […] dosing. The Captopril dose for rat was selected to match the standard human dose in man.
For in vivo real-time PCR analysis, RNA was extracted from cardiac tissue using Trizol (Invitrogen) after which two μg RNA from each tissue sample was used to generate cDNA using Super Script II reverse transcriptase per manufacturer's specifications (Invitrogen). To detect the level of miR-208 RT-PCR was performed using the Taqman MicroRNA assay (Applied Biosystems, ABI) according the manufacturer's recommendations, using 10-100 ng of total RNA. The expression of a subset of genes was analyzed by quantitative real time PCR using Taqman probes purchased from AB.

plasma miRNAs = test: Real-time PCR of plasma miRNAs, 6% NaCl diet (Example 3); assay type: in vivo, rat
Description: as §1
Quantitative real-time PCR analysis from plasma. RNA from plasma samples was isolated using Trizol LS Reagent (Invitrogen), using the manufacturer's protocol. Prior to RNA isolation, […] of two different synthetic C. elegans miRNA sequences were added to serve as internal controls for normalization of target miRNAs. The C. elegans sequences used were cel-miR-2 ([…], SEQ ID NO:5), and cel-lin-4 ([…]; SEQ ID NO:6) (Dharmacon). The final RNA pellet was re-suspended in a final volume equal to the initial plasma volume and 5 μl was used for subsequent RT-PCR reactions, as described above.

miR-208a, Myh6, Myh7 = test: Cardiac tissue markers by Taqman RT-PCR, 4% NaCl diet (Example 2); assay type: in vivo, rat; settings: 25 mg/kg sc every 2 weeks; for Myh6 expression in cardiac tissue: 25 mg/kg
Description: The flowing experimental groups were tested:
Following catheter implant surgery, high-salt diet was initiated. […] Animals were sacrificed 8 weeks after the initial injection.
Tissue RNA was isolated using standard Trizol RNA isolation.

Compound | Survival (Kaplan-Meier) (Dahl salt-sensitive rats; 1.5 mg/kg Captopril po daily) | Body weight (Dahl salt-sensitive rats; 15 mg/kg Captopril po daily) | Myh7b levels in the heart [1] | αMHC (Myh6) in the heart (reduced by HS diet) [1] | βMHC (Myh7) expression (increase induced by HS diet) [1] | Plasma miR-21 (plasma miRNAs) | Plasma miR-150 (plasma miRNAs) | Plasma miR-223 (plasma miRNAs) | Plasma miR-423-5p, miR-106b, miR-16, miR-92a, miR-378, miR-210, miR-378*, miR-20b and miR-93 (plasma miRNAs) | Body weight (Dahl salt-sensitive rats; oligonucleotide 25 mg/kg sc every 2 weeks) | Myh7 expression in cardiac tissue (miR-208a, Myh6, Myh7) | Myh6 expression in cardiac tissue (miR-208a, Myh6, Myh7) | Myh6 expression in cardiac tissue (miR-208a, Myh6, Myh7; listed as control oligonucleotide)
C[C@H](CS)C(=O)N1CCC[C@H]1C(=O)O [Captopril, reference compound] | pronounced decrease in survival | slightly reduced the high-salt (HS) diet-induced decrease in body weight | no apparent effect | normalized | reduced the increase | reduced specifically | reduced specifically | significantly reduced | decreased |  |  |  | 
M-10591: control oligonucleotide targeting miR-67 from C. elegans; 5′-TCCTAGAAAGAGTAGA-3′ (SEQ ID NO:13) (LNA-modified control oligonucleotide, pattern not given here) [reference compound] |  |  |  |  |  |  |  |  |  | no apparent effect on weight gain | significantly increased | significant decrease | no effect
